Reference: US7071168B2, “Anti-cancer compounds and methods related thereto” (The Regents of the University of Colorado, priority 1998, dated 2006)

Legend:
[1] = tested on: SCLC strain SHP-77; assay: Colorimetric tetrazolium (MTT) assay for cell survival, SCLC strain SHP-77; type: cell-based, human
Protocol: In general, Anti-bradykinin activity was determined by the classical guinea pig ileum assay and on Chinese hamster ovary (CHO) cells expressing cloned human bradykinin B2 receptors. Anti-tumor activity was determined on cultured human cancer cell lines using the standard tetrazolium (MTT) assay.
Cell growth and survival were measured by a rapid colorimetric assay based on the tetrazolium salt MTT (3-(4,5-dimethylthiazol-2-yl)-2,5-diphenyl tetrazolium bromide) (Mosmann, J Immunol. Methods 65: 55–63, 1983, with minor modifications). Briefly, 1,000 normal lung fibroblasts or normal epithelial BEAS-2B cells, 1,000 or 5,000 viable non-SCLC cells or 10,000 viable SCLC cells were plated in 100 μL of growth medium in 96-well flat-bottomed microtiter plates. Cells were incubated overnight to allow recovery. Compounds to be tested were added to the cells in triplicate in a range of concentrations and the cells were incubated at 37° C., 5% CO2, with 100% humidity. Control cells were treated in the same way without antagonists. […] Plates were incubated for 4 days, allowing sufficient time for cell replication and compound-induced cell death to occur. On day 5, 25 μL of a 2 mg/mL solution of MTT (Sigma) dissolved in RMPI-1640was added to each well. The plate was incubated for 4 h at 37° C. The supernate was removed and the blue formazan complex was dissolved by adding 100 μL of 0.02 N HCl in 75% isopropanol to all wells. Absorbance was immediately determined using a scanning multiwell plate reader. B9870 caused 50% cell death at a concentration of 0.15 μM under these conditions.

[2] = tested on: bradykinin response of isolated guinea pig ileum; assay: Anti-bradykinin activity on isolated guinea pig ileum
How it was run: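 Bradykinin concentration-effect curves were run in the absence and presence of compound. Tissue: 25 mm terminal ileum from male Hartley guinea pigs fasted overnight, held at 1 g tension in O2/CO2-bubbled Krebs' solution after 1 h equilibration.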

[3] = isolated guinea pig ileum, pD2 of bradykinin is 7.4, higher numbers indicate higher potency
[4] = Table 1, higher numbers indicate higher potency

| Compound | MTT: ED50 for killing of SCLC strain SHP-77 in vitro ([1]; SCLC strain SHP-77 in vitro) | GPI: pA2 for bradykinin antagonist activity on isolated guinea pig ileum [2, 3] | MTT: ED50 for killing of SCLC strain SHP-77 in vitro ([1]; Table 1, SHP-77, MTT, 4 days) | GPI: pA2 for bradykinin antagonist activity on isolated guinea pig ileum [2, 4] | further results |
| --- | --- | --- | --- | --- | --- |
| CC1=C(CC(=O)NC(Cc2ccc3ccccc3c2)C(=O)NC2CC(C)(C)NC(C)(C)C2)c2cc(F)ccc2C1=Cc1ccc([S+](C)[O-])cc1 (stereo not drawn) [M656] | 13 µM | 5.4 |  |  |  |
| SBEC-(DArg-Arg-Eac-Ser-DF5F-Nc7G-Arg)2 [M1028] |  |  | 28 µM | 6.7 |  |
| CC1(C)CC(NC(=O)[C@@H](NC(=N)CCCCCCCCCCCCC(=N)N[C@H](C(=O)NC2CC(C)(C)NC(C)(C)C2)C2Cc3ccccc3C2)C2Cc3ccccc3C2)CC(C)(C)N1 [M280] | 6 µM | 5.2 |  |  |  |
| F5c-F5F-Arg [M810] |  |  | 40 µM | 4.6 |  |
| DDD-(Eac-Eac-Arg-DIgl-Oic-Arg)2 [B10200] |  |  | 16 µM | 5.8 |  |
| Leu-Leu-DTrp-Phe-DTrp-DNMF-Eac2-DArg-Arg-Pro-Hyp-Gly-Igl-Ser-Digl-Oic-Arg [B10162] |  |  | 7 µM | 6.3 |  |
| CC1(C)CC(NC(=O)C(NC(=O)C=Cc2c(F)c(F)c(F)c(F)c2F)C(C)(C)C)CC(C)(C)N1 (stereo not drawn) [M662] | Inact | 5.2 |  |  |  |
| Cc1cc(NC(=O)C(Cc2ccc3ccccc3c2)NC(=O)C=Cc2c(F)c(F)c(F)c(F)c2F)c2ccccc2n1 (stereo not drawn) [M314] | 25 µM | 4.6 |  |  |  |
| DDD-(DArg-Arg-Aud-PaF(F5c)-Arg)2 [M728] |  |  | 4 µM | 5.3 |  |
| DDD-(p-ABz-hPhe-Arg)2 [M552] |  |  | Inact | Inact |  |
| CC1(C)C=C(C(=O)NCCNC(=O)C(Cc2ccc3ccccc3c2)NC(=O)C=Cc2c(F)c(F)c(F)c(F)c2F)C(C)(C)N1 (stereo not drawn) [M268] | 10 µM | 5.2 |  |  |  |
| CN(C(=O)C(Cc1ccc(OCc2c(Cl)cccc2Cl)cc1)NC(=O)C=Cc1c(F)c(F)c(F)c(F)c1F)C1CC(C)(C)N(C)C(C)(C)C1 (stereo not drawn) [M622] | 1.2 µM | 5.7 |  |  |  |
| DDD-(DArg-Arg-Aud-Pac-PaF(Fbz)-Arg)2 [M734] |  |  | 1.8 µM | 5.3 |  |
| DDD-(DArg-Arg-Eac-Ser-DF5F-Oic-Arg)2 [M804] |  |  | 7.3 µM | 7.7 |  |
| CC1(C)CC(NC(=O)C(Cc2ccc3ccccc3c2)NC(=O)C=Cc2ccc(N)cc2)CC(C)(C)N1 (stereo not drawn) [M308] | >75 µM | 5.0 |  |  |  |
| DDD-(DPhe-hPhe-Arg)2 [M756] |  |  | 18 µM | 5.2 |  |
| O=C(NC1CN2CCC1CC2)C(Cc1ccc2ccccc2c1)NC(=NC1CCCCC1)NC1CCCCC1 (stereo not drawn) [M18] | 30 µM | 6.6 |  |  |  |
| F5c-DArg-Arg-Aud-Ser-D5F5-Oic-Arg [M888] |  |  | 12.5 µM | 6.6 |  |
| DDD-(Pac-2Nal-DArg-NH2)2 [M504] |  |  | 11 µM | 5.4 |  |
| EGS-(DArg-Arg-Pro-Hyp-Gly-Igl-Ser-DIgl-Oic-Arg)2 [B10252] |  |  | 25 µM | 8.3 |  |
| CC1(C)CC(NC(=O)[C@H](Cc2ccc3ccccc3c2)NC(=O)C=Cc2c(F)c(F)c(F)c(F)c2F)CC(C)(C)N1 [M248] | 3.2 µM | 6.2 |  |  |  |
| c[Bala-DArg-Arg-Eac-Ser-DF5F-Oic-Arg] [M910] |  |  |  |  | MTT: ED50 for killing of SCLC strain SHP-77 in vitro ([1]; Table 3, cyclic peptides): 42 µM; GPI: pA2 for bradykinin antagonist activity on isolated guinea pig ileum ([2]; Table 3, cyclic peptides): 5.2 |
| Moti-DArg-Arg-Pro-Hyp-Gly-Thi-Ser-DIgl-Oic-Arg [B10104-3] |  |  | 20 µM | 8.1 |  |

| Compound | MTT: ED50 for killing of SCLC strain SHP-77 in vitro ([1]; SCLC strain SHP-77 in vitro) | GPI: pA2 for bradykinin antagonist activity on isolated guinea pig ileum [2, 3] | MTT: ED50 for killing of SCLC strain SHP-77 in vitro ([1]; Table 1, SHP-77, MTT, 4 days) | GPI: pA2 for bradykinin antagonist activity on isolated guinea pig ileum [2, 4] | further results |
| --- | --- | --- | --- | --- | --- |
| DArg-Arg-Pro-Hyp-Gly-Igl-Ser-DIgl-Oic-Arg-Eac-Eac-DArg-Arg-Pro-Hyp-Gly-Igl-Ser-DIgl-Oic-Arg [B10088] |  |  | 4 µM | 7.1 |  |
| DDD-(DArg-Arg-Aud-DTic-Oic-Arg)2 [M790] |  |  | 1.7 µM | Inact |  |
| CC1(C)CC(NC(=O)[C@@H](NC(=NC2CCCCC2)NC2CCCCC2)C2Cc3ccccc3C2)CC(C)(C)N1 [M236] | >50 µM | 4.7 |  |  |  |
| CC1(C)CC(NC(=O)[C@H](Cc2ccc3ccccc3c2)NC(=NC2CCCCC2)NC2CCCCC2)(C(=O)O)CC(C)(C)N1 [M244B] | Inact | 4.9 |  |  |  |
| c[DArg-Arg-Eac-Ser-DF5F-Oic-Arg] [M872] |  |  |  |  | MTT: ED50 for killing of SCLC strain SHP-77 in vitro ([1]; Table 3, cyclic peptides): 2.2 µM; GPI: pA2 for bradykinin antagonist activity on isolated guinea pig ileum ([2]; Table 3, cyclic peptides): Inact |
| (Dns-DArg-Igl-Arg)2-DDA [M678] | 1.1 µM | 5.3 |  |  |  |
| F5c-DArg-Eac-2Nal-Arg [M696] |  |  | Inact | 5.1 |  |
| CC1(C)CC(NC(=O)C(Cc2ccc(OCc3ccccc3)cc2)NC(=O)C=Cc2c(F)c(F)c(F)c(F)c2F)CC(C)(C)N1 (stereo not drawn) [M318] | 3.6 µM | 5.1 |  |  |  |
| CC1(C)CC(NC(=O)[C@@H](N)Cc2ccc3ccccc3c2)CC(C)(C)N1 [M218] | Inact | 4.8 |  |  |  |
| CC1(C)CC(NC(=O)[C@@H](Cc2ccc3ccccc3c2)NC(=NC2CCCCC2)NC2CCCCC2)CC(C)(C)N1 [M246] | >50 µM | 5.7 |  |  |  |
| DDD-(DArg-Arg-Aud-DF5F-Oic-Arg)2 [M846] |  |  | 2 µM | 7.1 |  |
| CN(C)c1cccc2c(S(=O)(=O)NC(Cc3ccc(OCc4c(Cl)cccc4Cl)cc3)C(=O)N(C)C3CC(C)(C)NC(C)(C)C3)cccc12 (stereo not drawn) [M624] | 1.4 µM | 5.1 |  |  |  |
| CCOC(=O)N1CCC(NC(=O)C(Cc2ccc3ccccc3c2)NC(=O)C=Cc2ccc(N)cc2)CC1 (stereo not drawn) [M604] | 43 µM | 4.5 |  |  |  |
| CN(C)c1ccc(C=CC(=O)NC(Cc2csc3ccccc23)C(=O)NC2CC(C)(C)NC(C)(C)C2)cc1 (stereo not drawn) [M448] | 2.7 µM | 5.7 |  |  |  |
| F5c-pABz-2Nal-Arg [M176] |  |  | Inact | 5.4 |  |
| Aca-c[DArg-Arg-Pro-Hyp-Gly-Thi-Ser-Nig-Oic-Arg] [B10304] |  |  |  |  | MTT: ED50 for killing of SCLC strain SHP-77 in vitro ([1]; Table 3, cyclic peptides): Inact; GPI: pA2 for bradykinin antagonist activity on isolated guinea pig ileum ([2]; Table 3, cyclic peptides): 6.4 |
| TDIM-(DArg-Arg-Pro-Hyp-Gly-Igl-Ser-DIgl-Oic-Arg)2 [B10100-2] |  |  | 1 µM | 8.0 |  |
| COC(=O)CCCCCCCCC(=O)Nc1ccc(C=CC(=O)NC(Cc2csc3ccccc23)C(=O)NC2CC(C)(C)NC(C)(C)C2)cc1 (stereo not drawn) [M506] | 11 µM | 4.9 |  |  |  |
| F5c-DArg-Arg-Eac-Ser-DF5F-Oic-Arg [M796] |  |  | 31 µM | 6.5 |  |
| F5c-DArg-Arg-Pro-Hyp-Gly-Igl-Ser-DIgl-Oic-Arg [B10238] |  |  | 150 µM | 8.1 |  |
| Dcg-F5F-Arg [M130] |  |  | 20 µM | 4.8 |  |
| CC1(C)CC(NC(=O)C(Cc2ccc3ccccc3c2)NC(=O)C=Cc2ccc(C(F)(F)F)cc2)CC(C)(C)N1 (stereo not drawn) [M312] | 3.2 µM | 5.5 |  |  |  |
